Experiment [1] has as its system Histamine-induced anaphylactoid reactions. Kind of experiment: Inhibition of anaphylactoid cutaneous reaction induced by histamine. Type of experiment: in vivo, rat (Sprague-Dawley). Conditions: Rattus norvegicus, 1 h; rats, 2 × 10^-5 mol/kg p.o., one hour before challenge; histamine intradermal. On the procedure: (§1) 1. Determination of the inhibition of passive cutaneous anaphylaxis (P.C.A.) and of the anaphylactoid cutaneous reaction induced by histamine.
(§2) The determination of the inhibition of passive cutaneous anaphylaxis and the anaphylactoid cutaneous reaction induced by histamine was carried out as follows:
To determine the histamine-induced anaphylactoid skin reaction, the animals were injected intradermally in the flank opposite to the antiserum administration with 50 μl of a physiological saline solution containing 0.8 mg/ml of histamine directly before the i.v. injection of the solution containing the ovalbumin and the blue dye.
(§3) On the test days, the test substances were dissolved in distilled water which contained 1% by volume of dimethylformamide and 1% by volume of Tween®20 (polyoxyethylene(20) sorbitan monolaurate). One hour before the challenging ovalbumin administration, each animal received 2×10^-5 mol/kg of test substance administered orally in 0.5 ml of solution. A control group received only the solvent for comparison.
(§4) The oedematous anaphylactic (P.C.A.) and anaphylactoid (histamine-induced) reactions caused by the challenging i.v. ovalbumin injection, which are manifested by oedema formation, swelling and exudation of blue dye, were evaluated 30 minutes after challenge by the i.v. ovalbumin injection. This was done by visual determination of the extent to which the blue dye emerges at the sites of oedema formation. The percentage inhibition of anaphylactic and anaphylactoid reactions caused by the test substances was determined in comparison with the reactions of the control animals not treated with test substance with the aid of comparison scales.
(§5) The results obtained by the above test methods using compounds of the formula I are shown in the following Table A. The example numbers given for the compounds of formula I relate to the following preparation examples.

In experiment [2] the test system is Passive cutaneous anaphylaxis (P.C.A.). The experiment can be described thus: Inhibition of passive cutaneous anaphylaxis (P.C.A.). Type of experiment: in vivo, rat (Sprague-Dawley). Conditions: Rattus norvegicus, 1 h; rats, 2 × 10^-5 mol/kg p.o., one hour before ovalbumin challenge. On the procedure: as §1
The P.C.A. reaction was carried out according to the methods described by Goose et al. (J.N. Immunology 16 (1969), 749) and by Martin et al (Arch. Pharmacol. 316 (1981), 186}.
The IgE-rich ovalbumin antiserum used in the test was obtained from immunized Brown-Norway rats. For immunization, the rats were given an i.p. injection of a mixture of 100 μg of ovalbumin with a Bordetella pertussis suspension (Vaxicoq®, Manufacturer: Institut Merieux, containing 5×10^9 organisms and 1.25 mg of Al(OH)3). After 20 days, the animals received a further i.p. injection of a solution of 10 μg of ovaIbumin in 0.5 ml of physiological saline solution for reimmunisation. After a further four days, the animals were bled, and the blood was centrifuged The antiserum obtained in this way was stored at -20° C. until use.
as §2
Sprague-Dawley rats having a body weight of 150-180 g were injected intradermally in one flank with 50 μl of a 1:75 dilution of the IgE-rich ovalbumin antiserum in physiological sodium chloride solution for passive sensitization to ovalbumin.
24 hours after sensitization a solution of 8.25 mg/kg of ovalbumin and 26.4 mg/kg of a blue dye (Evans' Blue) was administered i.v. to the rats according to Martin et al. to induce passive cutaneous anaphylaxis. The ovalbumin challenge caused a local anaphylactic reaction at the site at which the antiserum had been injected.
as §3, §4, §5

For the next experiment, the target named is T1, histamine (H1) receptor (Cavia porcellus, UniProt P31389).
T1 construct: isolated smooth muscle of the guinea-pig ileum; from tissue; host or cells: isolated ileum segments of Dunkin Hartley guinea-pigs
Kind of experiment: Antihistamine (H1) effect: inhibition of histamine-induced contractions of isolated guinea-pig ileum in vitro. Type of experiment: cell-based, guinea-pig (Dunkin Hartley). Conditions: histamine 5 × 10^-6 mol/l, test substance 10^-6 mol/l. The protocol: 3. Investigation of the antihistamine (H1) effect based on histamine (H1) receptor antagonism in vitro.
To investigate the histamine (H1) receptor antagonism of the substances, the inhibitory effect thereof on histamine-induced contractions of the smooth musculature of isolated organ was determined in vitro. Isolated strips of organ from the ileum were used. In an organ bath of physiological saline solution, they react to addition of histamine by contracting. Addition of the compounds of the invention decreases this histamine-induced contraction of the smooth musculature of the ileum strips. The extent of decrease of the contraction is an indication of the antihistamine (H1) activity of the compounds. The investigation is carried out analogously to the method originally described by Magnus (Pflugers Arch. 102, 123 (1904)).
Experimental description of the determination of the inhibitory effect on the contraction induced by a 5×10^-6 molar histamine concentration on isolated smooth muscle of the guinea-pig ileum.
For the test, 1.5 cm long segments of the ileum from Dunkin Hartley guinea-pigs having a body weight of 300-500 g were employed. Each strip was placed in an organ bath of 10 ml of Krebs-Henseleit physiological saline solution and attached to a customary apparatus for isotonically measuring changes in length of the ileum strip (automated Celaster measuring apparatus) so that the tissue is under a tension of 1 g. The bath was kept at a pH of 7.4 and aerated with a mixture of 5% CO2 and 95% O2. After an equilibration phase, an isotonic contraction of the tissue was produced by adding histamine in a final concentration of 5×10^-6 mol/l and was washed out again after a contact time of 30 seconds. Only those tissues in which three reproducible contractions were obtained at 10 minute intervals were used in the subsequent test. The test substances were then added in a final concentration of 10^-6 mol/l, and after a contact time of 30 seconds histamine was again added up to a concentration of 5×10^-6 mol/l. The contractions which occurred were measured over the course of 30 seconds. The tissue was then washed several times over a period of 10 minutes. A contraction challenge was then induced again by addition of histamine. The contractions which occurred were again measured over 30 seconds. The difference between the amplitude of the contraction obtained by histamine addition alone and the amplitude of the contraction obtained in the presence of the test substance was determined and calculated as % inhibition.
The inhibitory effects on the contractions induced by histamine 30 seconds after administration of the test substance and on the contractions induced by addition of histamine 10 minutes afterward are given in the table.

In experiment [3] the test system is P.A.F.-induced aggregation of platelets from rabbit blood. Kind of experiment: Anti-P.A.F. effect in vitro: inhibition of P.A.F.-induced platelet aggregation. Type of experiment: cell-based, rabbit (New Zealand hybrids). To be noted: test substance concentration 10^-5 mol/l; for inhibition at 10 µM: Oryctolagus cuniculus, Platelet. The source says:
4. Determination of anti-P.A.F. effect in vitro.
Platelet-activating factor (P.A.F.) is a phospholipid mediator which has several effects. The activation of platelet aggregation leads to the induction of protracted broncho contractions and hyperreactivity of the airways.
The effects of the test substances on platelet aggregation induced by adding P.A.F. to a platelet suspension obtained from rabbit blood was investigated by the method described by Mikashima et al. (Jap. J. Pharmacol. 44 (1987) 387-391).
A suspension of platelets originating from rabbit blood was used which contained 4×10^9 platelets/ml in a modified Tyrode buffer solution adjusted to pH 7.4. Tyrode solution is an aqueous solution containing 136.9 mmol of NaCl, 2.68 mmol of KCl, 2.31 mmol of CaCl2, 1.0 mmol of MgCl2, 11.9 mmol of NaHCO3, 1.45 mmol of NaH2 PO4 and 5.55 mmol of glucose per liter. This solution was modified by adding 1.3 mM/l of CaCl2 and 2.5 g/l of gelatin. The platelets were obtained from 10 ml blood samples from each of three rabbits (New Zealand hybrids, body weight 3-4 kg). For this, the blood samples were treated with ethylenediaminetetraacetic acid and washed by the method of Artley et al. (Brit. J. Hamatol. 19 (1970), 7-17). A platelet-rich plasma was then initially separated by centrifugation (20 minutes at 400×g). The platelets were separated from the plasma by centrifuging again for 15 minutes at 1400×g. After centrifuging, the platelets remaining as a sediment were resuspended in a calcium-free Tyrode buffer solution. 0.4 mmol of lysine acetylsalicylate were then added and after 15 minutes the blood platelets were sedimented again. The sediment was resuspended in the abovementioned modified Tyrode buffer solution, and the number of platelets in the resulting suspension was adjusted to the desired content.
A 40×10^-9 molar P.A.F. solution was used as the reagent. This solution was prepared from a 1.8×10^-3 molar stock solution in chloroform. For this, a 10μl sample of the stock solution was evaporated to dryness and redissolved in 180 μl of the modified Tyrode solution, to which 0.25% of dilapidated bovine serum albumin had been added. 10^-5 molar working solutions were then prepared from this and stored frozen. Samples of these solutions were appropriately diluted for the tests.
To carry out the tests, 50 μl of the platelet solution and 10 μl of a 40×10^-5 molar solution of the compound to be investigated were added to 330 μl of the modified Tyrode buffer solution with stirring (1000 rpm) in an aggregation tube provided with a small magnetic stirrer. This corresponds to a final test substance concentration of 10^-5 mol/l. After a preincubation time of 90seconds, 10 μl of the P.A.F. preparation were added. The aggregation occurring in the aggregation tubes was measured for 4-5 minutes using a computerized aggregometer.
The aggregation occurring in the test tubes containing only platelet suspension was rated as 0%. The aggregation occurring in test tubes containing platelet suspension and P.A.F. preparation was rated as 100%. The aggregation which still occurred in the presence of the test substances (i.e. during inhibition of the P.A.F.-induced platelet aggregation increase) was measured, and the resulting aggregation inhibition is calculated from this in %.

Where [4] appears, read: after 30 sec., read-out: in vitro (H1) receptor antagonism % inhibitory effect on histamine-induced contractions of the Ileum, after 30 sec.
Where [5] appears, read: after 10 min. (after washing), read-out: in vitro (H1) receptor antagonism % inhibitory effect on histamine-induced contractions of the Ileum, after 10 min.

For orientation: inhibition in vivo means the share of the control response that was lost under treatment.

Like-named read-outs stand apart in the source and are kept apart here.

T1 sequence (P31389 whole entry): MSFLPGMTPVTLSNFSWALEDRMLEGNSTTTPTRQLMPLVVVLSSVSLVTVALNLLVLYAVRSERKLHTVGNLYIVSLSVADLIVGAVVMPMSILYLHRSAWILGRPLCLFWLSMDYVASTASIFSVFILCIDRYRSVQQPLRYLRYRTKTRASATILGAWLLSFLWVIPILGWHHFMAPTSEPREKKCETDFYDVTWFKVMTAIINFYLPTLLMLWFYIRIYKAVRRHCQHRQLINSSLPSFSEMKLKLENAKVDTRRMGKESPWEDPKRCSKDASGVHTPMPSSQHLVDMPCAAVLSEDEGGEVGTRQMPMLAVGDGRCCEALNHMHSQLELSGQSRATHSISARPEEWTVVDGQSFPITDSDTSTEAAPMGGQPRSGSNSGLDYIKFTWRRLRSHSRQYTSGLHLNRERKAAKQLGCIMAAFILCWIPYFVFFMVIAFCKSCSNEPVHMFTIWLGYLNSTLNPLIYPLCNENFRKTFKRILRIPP

`Cc1ccnc(N2CCN(CCCc3c(C)n4c5c(cccc35)CCC4)CC2)c1` [Example 17, 5,6-dihydro-2-methyl-1-{3-[4-(4-methylpyridin-2-yl)piperazin-1-yl]-propyl}-4H-pyrrolo[3,2,1-ij]quinoline]: the inhibition in vivo at 20 µmol/kg in experiment [1] stood at 25%; in experiment [2], 45%.

`CNc1cc2c3c(c1)c(CCN1CCN(c4cc(C)ccn4)CC1)c(C)n3CCC2` [Example 29, 5,6-Dihydro-2-methyl-8-methylamino-1-{2-[4-(4-methylpyridin-2-yl)piperazin-1-yl]ethyl}-4H-pyrrolo[3,2,1-ij]quinoline]: at histamine (H1) receptor (after 30 sec.), the “in vitro (H1) receptor antagonism % inhibitory effect on histamine-induced contractions of the Ileum, after 30 sec.” value worked out at 7%. The “in vitro (H1) receptor antagonism % inhibitory effect on histamine-induced contractions of the Ileum, after 10 min.” value on histamine (H1) receptor (after 10 min. (after washing)) worked out at 30%.

`Cc1ccnc(N2CCN(CCc3c(C)n4c5c(cccc35)CCCC4)CC2)c1` [Example 31, 4,5,6,7-tetrahydro-2-methyl-1-{2-[4-(4-methylpyridin-2-yl)piperazin-1-yl]ethyl}-pyrrolo[3,2,1-jk]benzazepine] gave an inhibition at 10 µM in experiment [3] of 95%. For the same compound, the values for the inhibition at 1 µM at histamine (H1) receptor (setting [4]) and at histamine (H1) receptor (setting [5]) were 31% and 89%, respectively.

As to `COc1cccc(N2CCN(CCc3c(C)n4c5c(cccc35)CCC4)CC2)c1` [Example 48], the inhibition at 1 µM on histamine (H1) receptor (setting [4]) is 35%; on histamine (H1) receptor (setting [5]), 48%. Besides, the inhibition in vivo at 20 µmol/kg worked out at 35% in experiment [1] and 25% in experiment [2].

Turning to `Cc1ccc(-c2c(CCN3CCN(c4cc(C)ccn4)CC3)c3cccc4c3n2CCC4)cc1` [Example 86], the inhibition at 10 µM in experiment [3] came to 100%.

For `Cc1ccc(N2CCN(CCc3c(C)n4c5c(cc(C(=O)C(C)C)cc35)CCC4)CC2)nc1` [Example 95], the values for the inhibition at 1 µM on histamine (H1) receptor (setting [4]) and on histamine (H1) receptor (setting [5]) were 10% and 71%, respectively.

With `Cc1ccnc(N2CCN(CCc3c(C)n4c5c(cccc35)S(=O)(=O)CC4)CC2)c1` [Example 28b, 2,3-dihydro-5-methyl-6-{2-[4-(4-methylpyridin-2-yl)-piperazin-1yl]ethyl}-pyrrolo[1,2,3-de]-1,4-benzothiazine-1,1-dioxide], the inhibition at 1 µM at histamine (H1) receptor (setting [4]) is 6%; at histamine (H1) receptor (setting [5]), 14%. The inhibition in vivo at 20 µmol/kg in experiment [1] was determined as 85%; in experiment [2] it was 100%.

With `COc1ccc(-c2c(CCN3CCN(c4cc(C)ccn4)CC3)c3cccc4c3n2CCC4)cc1` [Example 96], the “% inhibition of the P.A.F.-induced aggregation of platelets from rabbit blood” value in experiment [3] is given as 98%.

As to `Cc1ccnc(N2CCN(CCc3c(C)n4c5c(cccc35)CCC4CO)CC2)c1` (stereo not shown) [Example 18, 5,6-Dihydro-4-hydroxymethyl-2-methyl-1-{2-[4-(4-methylpyridin-2-yl)piperazin-1-yl]ethyl}-4H-pyrrolo[3,2,1-ij]-quinoline], the figures for the inhibition at 1 µM on histamine (H1) receptor (setting [4]) and at histamine (H1) receptor (setting [5]) were 29% and 72%, respectively. Moreover, the inhibition in vivo at 20 µmol/kg in experiment [1] turned out to be 80%; in experiment [2], 90%.

In the case of `CSc1cc2c3c(c1)c(CCN1CCN(c4cc(C)ccn4)CC1)c(C)n3CCS2` [Example 78], in experiment [3], the inhibition at 10 µM is 98%. Besides, the figures for the inhibition at 1 µM at histamine (H1) receptor (setting [4]) and at histamine (H1) receptor (setting [5]) were 12% and 92%, respectively.

`Cc1ccnc(N2CCN(CCc3c(Cc4ccccc4)n4c5c(cccc35)CCC4)CC2)c1` [Example 32, 2-Benzyl-5,6-dihydro-1-{2-[4-(4-methylpyridin-2-yl)-piperazin-1-yl]ethyl}-4H-pyrrolo[3,2,1-ij]quinoline] yielded an inhibition at 10 µM in experiment [3] of 100%.

`Cc1ccnc(N2CCN(CCc3c(-c4ccc(O)cc4)n4c5c(cccc35)CCC4)CC2)c1` [Example 97]: in experiment [3], the “% inhibition of the P.A.F.-induced aggregation of platelets from rabbit blood” value stood at 99%.

Source of the values: US5324725A, “7-fused 2-(piperazinoalkyl) indole derivatives, intermediates and compositions thereof” (Kali-Chemie Pharma GmbH, priority 1991, dated 1994).
